Results on 90 compounds are retold here after a melting point compilation (Tetko et al.; mined from patent text by program, amines drawn as free bases though some values may be those of a salt).

SMILES strings stand for the structures. Bounds are passed on as bounds.

A word on the melting point: it is the temperature, or range, at which the solid turns liquid.

Regarding `Cc1cc(-n2nc(C(N)=O)nc2-c2ccccc2)ccc1F`, the melting point lay in the range of 123 to 126 °C.

On to `Cc1ccc(C2c3c(C)c(N4CCN(c5ccc(C)cc5)CC4)c(C)c(C)c3OC2(C)C)cc1` (stereo not given), for which the melting point is 157 to 158 °C.

The compound `C=CCOCc1c(CO)sc2c(=O)c(C(=O)NCc3ccc(Cl)cc3)cn(C)c12` gave a melting point of 184 to 185 °C.

As for `COCCCCCCCCCCCC(=O)O`, the melting point was in the range of 45 to 47 °C.

With `O=C(Nc1cc(Cl)cc(Cl)c1)c1cc(Br)ccc1O`, the melting point was 243 to 244 °C.

For `O=[N+]([O-])c1cc(Cl)c2c(c1)C(F)(F)C(F)(F)S2`, the melting point was 61.5 to 62 °C.

Regarding `Cc1ccc2c(c1)C(C(=O)Nc1c(Cl)cccc1Cl)c1ccccc1CO2` (stereo not given), the melting point fell in the range of 156 to 157 °C.

Turning to `CCCN(c1ccncc1)n1ccc2cc(OC(=O)NC(C)C)ccc21`, the melting point lay within 131 to 133 °C.

As to `O=c1[nH]nc2c3c(cccc13)Oc1ccc(COCCP(=O)(OCc3ccccc3)OCc3ccccc3)cc1-2`, the melting point was 173 to 175 °C.

Compound `COCCN1CC(=O)C(C#N)=C1C#N` came in with a melting point of 108 to 110 °C.

Take `O=C1c2ccccc2C(=O)N1CCCCSc1nccc(NC(=S)NCC(F)(F)F)n1`: the melting point fell in the range of 201 to 202 °C.

Consider `O=C(c1cc2ccccc2s1)N1CCc2[nH]c3c(cnc4cc(Cl)ccc43)c2C1`, for which the melting point was more than 250 °C.

Compound `COc1cc(C=O)cc(F)c1OC` returned a melting point of 51 to 53 °C.

`COc1ccc(C(=O)Nc2c(Cl)cncc2Cl)cc1OC1COCC1OCSC` (stereo not given) returned a melting point of 195 to 198 °C.

Compound `O=C(c1ccccc1)N1CCc2[nH]c3c(cnc4cc(Cl)ccc43)c2C1` gave a melting point of 275 °C.

Consider `CNC(=C[N+](=O)[O-])NCc1ccc2c(c1)Nc1nccnc1S2`, for which the melting point was more than 265 °C.

`CCOC(=O)C(=CNc1ccn(Cc2ccccc2)n1)C(=O)OCC` showed a melting point of 57 to 59 °C.

`NCCCCNC(=O)C1(NC(=O)CCCC(=O)O)Cc2ccccc2C1` came in with a melting point of 132 °C.

In turn, `CS(=O)c1nn(Cc2cccc(C(F)(F)F)c2)c(N)c1C#N` (stereo not given) came in with a melting point of 143 °C.

`Cc1ccc(=Nc2nnc(C(F)(F)F)s2)n(-c2cccc(C(F)(F)F)c2)c1` had a melting point of 179 °C.

`CCOC(=O)c1ccc(-c2cnc3c(c2)N(Cc2ccccc2)CCN3)cc1` returned a melting point of 178 to 179 °C.

Consider `Cn1cc(C(=O)O)c(=O)c2cc(Cl)c(N3CCNCC3)cc21`, for which the melting point stood at 288 °C.

Turning to `CC1(C)CC(C)(C)CC2(CCC(=O)N2)C1`, the melting point lay in the range of 158 to 160 °C.

In turn, `NC(=O)c1cc([N+](=O)[O-])cnc1C(Br)Br` registered a melting point of 156 to 158 °C.

As to `NC(=O)c1cc([N+](=O)[O-])cnc1C(Cl)Cl`, the melting point was in the range of 125 to 127 °C.

`Cc1cc2ccccc2c(-c2cccc(I)c2)n1` gave a melting point of 77 to 78 °C.

`O=[N+]([O-])c1ccc(OCc2cscn2)cc1` had a melting point of 175 to 176 °C.

Consider `CCON=Cc1c(S(C)(=O)=O)ccc(C(=O)C2C(=O)CC(C)(C)CC2=O)c1Cl`, for which the melting point is 156 to 157 °C.

`CC(C)(C)N[C@@H]1Cc2c(O)cccc2C[C@H]1O` (relative stereo): the melting point was 123 to 127 °C.

As to `CC(=O)Nc1ccc(NCCNS(C)(=O)=O)cc1`, the melting point came to 130 °C.

As for `Cc1ccc(NC(=O)c2cccc(N(C)C)c2)cc1NC(=O)c1cccc(N(C)S(C)(=O)=O)c1`, the melting point fell in the range of 168 to 169 °C.

`CCOC(=O)C(Cc1ccc(Cl)cc1SCc1ccc(OC)cc1)(CC(C)C)C(=O)OCC` registered a melting point of 95 to 97 °C.

In turn, `COC(=O)c1c(C(F)(F)F)noc1NS(=O)(=O)c1ccccc1` gave a melting point of 100 to 101 °C.

The compound `CN1CCN(c2cc(Cl)cc3c2c(=O)n(Cc2ccc(Br)cc2)c(=O)n3Cc2ccccc2)CC1` displayed a melting point of 93 to 98 °C.

`C=CCNc1nc2c(c(N3CCN(C)CC3)n1)CCCN2CC=C` registered a melting point of 81 °C.

The compound `CC1(C)NCC(O)(c2ccccc2)CN1` registered a melting point of 108 °C.

Take `CCOC(=O)Cn1c(=O)n(-c2ccccc2Cl)c(=O)c2c(C)c(C(=O)OCC)c(C)cc21`: the melting point was 158 to 159 °C.

On to `COc1cc2ncnc(Nc3cccc(Cl)c3F)c2cc1OC1CCN(C(=O)OC(C)(C)C)CC1`, for which the melting point was 192 to 194 °C.

`CCSc1ccccc1N1CCN([C@@H]2Cc3c(OC)ccc(OC)c3C[C@H]2O)CC1` (relative stereo) gave a melting point of 171 to 173 °C.

In turn, `CN1Cc2c(C(=O)NN)ncn2-c2cccc(Cl)c2C1=O` returned a melting point of 287 °C.

As to `COc1cc(NC(=O)N(CCCCCC(=O)O)c2ccccc2)c(O)c(C(C)(C)C)c1`, the melting point is 95 to 98 °C.

`O=C1CCc2ccc(OC/C=C/CN3CCN(c4cccc(Cl)c4Cl)CC3)cc2N1` gave a melting point of 151 to 152 °C.

In turn, `C=CCc1cc2c(C)c(Br)c(=O)oc2c(C)c1O` showed a melting point of 189 to 190 °C.

Turning to `COc1ccc(NCCNC(=O)c2ccc(OCC=C(C)CCC=C(C)C)cc2)cn1`, the melting point was in the range of 97.9 to 99.3 °C.

For `CCSC1(SCC)C(O)CC2C3CCC4=CC(=O)C=CC4(C)C3(F)C(OC(C)=O)CC21C` (stereo not given), the melting point lay in the range of 181 to 182 °C.

`Nc1nc2ccccc2c2c1ncn2CCCC(=O)c1ccccc1` registered a melting point of 209 to 211 °C.

In turn, `CC1=Nc2ccccc2CN1C1CCC(=O)NC1=O` (stereo not given) returned a melting point of 78 to 85 °C.

On to `CCOC(=O)c1cc2ccc(C(C)C)nc2s1`, for which the melting point was 73 to 74 °C.

Turning to `O=S1(=O)N=C(NCCc2ccccc2)Nc2ccc(Cl)cc21`, the melting point lay within 250 to 252 °C.

`Cc1ccccc1C(=O)Nc1ccc(C(=O)O)cc1` came in with a melting point of 270 to 275 °C.

`CN1CC(=O)Nc2ccc(C#N)cc2C1=O` showed a melting point of 256 to 258 °C.

As to `O=C(CC1CCCCC1)NC1CC(C(=O)O)Nc2cc(Cl)cc(Cl)c21` (stereo not given), the melting point lay in the range of 197 to 200 °C.

For the compound `[N-]=[N+]=NCn1cc(Cl)c(-c2cc(Cl)cc(Cl)c2)n1`, the melting point stood at 74 °C.

Regarding `COc1cc2c(cc1OC)-c1[nH]c3ccc([N+](=O)[O-])cc3c1CC(=O)N2`, the melting point was more than 330 °C.

Compound `O=C(c1c[nH]c2cc(OCc3ccc(F)cc3)ccc12)C1CSC(c2cccnc2)N1` (stereo not given) yielded a melting point of 185 to 186 °C.

As for `CC1=Nc2ccccc2C=C(c2ccccc2)N1C`, the melting point lay in the range of 144 to 145 °C.

Regarding `O=C(O)C1=Cc2ccc(Cl)c(Cl)c2OC1C(F)(F)F` (stereo not given), the melting point was 220 to 221 °C.

For `CCOC[C@@H]1[C@H](c2ccc(Cl)c(Cl)c2)C[C@H]2CC[C@@H]1N2C`, the melting point was 52.5 to 54.5 °C.

As for `CC(C)NC(=O)C[C@@H]1CCCNc2ccccc21`, the melting point lay in the range of 91 to 92 °C.

`COC(=O)N1CCC(CCC(=O)O)CC1` displayed a melting point of 88 to 90 °C.

With `N#Cc1ccc(CBr)c(C#N)c1`, the melting point was 106 °C.

Take `O=C(O)COc1ccc(C(=O)C=Cc2ccccc2)c(Cl)c1Cl`: the melting point is 190 to 191 °C.

Regarding `CN(C)Cc1ccc2c(c1)Cc1c(-c3cccs3)n[nH]c1-2`, the melting point lay in the range of 204 to 206 °C.

The compound `CCN1CCN(c2ccnc(-c3nc(=O)c4ccccc4s3)c2)C1=O` registered a melting point of 212 to 213 °C.

Regarding `C[C@H]1CCC[C@@](O)(CNC(=O)c2c(Cl)ccc3nc(N4CC[C@H](O)C4)ccc23)C1`, the melting point was 222 °C.

The compound `N#Cc1nc(F)c(Cl)c(F)c1Cl` had a melting point of 78 to 79 °C.

For the compound `COC(=O)CCCCCNC(=O)C(CSC(C)=O)Cc1ccccc1` (stereo not given), the melting point fell in the range of 50 to 54 °C.

Consider `CCCn1c(=O)n2c(C)nnc2c2c1ncn2C`, for which the melting point was in the range of 192 to 194 °C.

`CC(CS)C(=O)N1C(=O)CC[C@H]1C(=O)O` (stereo not given in full) came in with a melting point of 101 to 108 °C.

For `CC(=O)Oc1ccc(CN/C=C2\C(=O)NC(=O)c3ccccc32)cc1OC(C)=O`, the melting point lay within 184 to 186 °C.

`CCN(C(=O)c1nn(-c2ccc(Cl)cc2Cl)c(-c2ccc(Cl)cc2)c1C)N1CC=CCC1` returned a melting point of 109 °C.

`Cc1sc(NS(=O)(=O)c2cccc(Cl)c2C)nc1CC(=O)N1CCOCC1` yielded a melting point of 194 to 195 °C.

With `CN1CCC2(C)c3cc(C(=O)C(=O)OCc4ccccc4)ccc3N(C)C12` (stereo not given), the melting point is 53 to 57 °C.

Turning to `NNC(=O)CSc1nc(Cl)cc(NCc2ccc(Cl)cc2)n1`, the melting point was 178 to 182 °C.

Compound `FC(F)(F)c1cc(Br)c2cccc(Cl)c2n1` returned a melting point of 62 to 64 °C.

Regarding `CC(C)Cc1nn(C)c(=O)c2c(S(=O)(=O)CCCO)c(Cc3ccccc3)sc12`, the melting point was in the range of 105 to 107 °C.

`CC(C)CC(C)c1ccccc1NC(=O)c1cn(C)cc1C(F)(F)F` (stereo not given) returned a melting point of 83 to 85 °C.

In turn, `CC(=O)NNc1ccc(NC(=S)Nc2ccc(NNC(C)=O)cc2)cc1` displayed a melting point of 234 to 236 °C.

Take `N#Cc1cc(Cl)ccc1-c1ccc(C(O)CCC(=O)O)cc1` (stereo not given): the melting point fell in the range of 168 to 169 °C.

Regarding `Cn1cccc1C(=O)C(C#N)C(=O)Nc1ccccc1` (stereo not given), the melting point lay within 170 to 172 °C.

`CCc1c(Cl)cnn(C(C)(C)C)c1=O` registered a melting point of 61.5 to 62.5 °C.

Compound `CC(=O)Cc1ccc(OCC(O)CN2CCN(c3ccccc3)CC2)cc1` (stereo not given) yielded a melting point of 121 to 122 °C.

In turn, `O=C(c1ccc(Cl)cc1)c1cccc([N+](=O)[O-])c1N1CCCCC1` had a melting point of 141 °C.

In turn, `C#Cc1cccc(Oc2nc(Oc3cccc(C#C)c3)nc(-c3ccccc3)n2)c1` came in with a melting point of 139 to 144 °C.

`O=C(Nc1ccc2cc(CN3CCCC3)cnc2c1)c1ccc(-c2ccc(Cl)cc2)cc1F` had a melting point of 177 °C.

Regarding `CC(C)C(NC(=O)OCCN1CCOCC1)C(=O)NC(Cc1ccccc1)C(O)C(Cc1ccccc1)NC(=O)C(NC(=O)OCCN1CCOCC1)C(C)C` (stereo not given), the melting point fell in the range of 122 to 123 °C.

`C=CCCOc1ccc(C[C@H](NC(=O)OC(C)(C)C)C(=O)N[C@@H](CC(C)C)C(=O)N[C@@H](CC=C)C(=O)OC)cc1`: the melting point fell in the range of 166 to 168 °C.

Compound `CN(CCOc1ccc(CC(Oc2ccc3ccccc3c2)C(=O)O)cc1)c1nc2ccccc2o1` (stereo not given) gave a melting point of 162 to 164 °C.

As to `CC(O)=C(C#N)C(=O)Nc1ccccc1`, the melting point lay within 134 to 135 °C.

Compound `CCCCCCCCCC(=O)Nc1ccccc1` gave a melting point of 65 to 66 °C.
